Measured values: patent EP0987025A1, “Pharmaceitical composition or composition package containing a pyrimidine nucleoside analogue and a purine nucleoside analogue” (priority 1998, dated 2000)

Assays:
Type in all cases: in vivo, C57BL/6 mice
[1] = test system: circulating B cells; experiment: Flow cytometry of circulating lymphocytes; conditions: after Fludara suspension
Text: Whole blood samples were stained with antimouse L3T4/CD4 fluorescein isothiocyanate (FITC) conjugated (Boehringer Mannheim Biochemica) for the detection of CD4^+ lymphocytes, antimouse Ly-2R phycoerythrin (PE) conjugated (Boehringer Mannheim Biochemica) for the detection of CD8a lymphocytes, antimouse Thy-1.2 FITC conjugated (Boehringer Mannheim Biochemica) for the detection of T cells, and antimouse Ly 5 (B220)-PE Monoclonal antibody (Cederlane, Ontario, Canada) for the detection of committed B cell precursors. Samples were analyzed by FACS (Becton Dickinson).

[2] = test system: BM5d proviral DNA; experiment: PCR analysis of BM5d proviral DNA in spleen, lymph node and bone marrow; conditions: for % of inhibition of BM5d proviral DNA, Bonemarrow / % of inhibition of BM5d proviral DNA, Lymphnode / % of inhibition of BM5d proviral DNA, Spleen: after 7 weeks of infection
Text: The following oligonucleotide primers were used for the amplification of a 141-bp gag gene of defective virus genome (BM5d); 5' primer, 5'-AACCTTCCTCCTCTGCCA-3' (sense) corresponding to nucleotides 1456-1473 and 3' primer, 5'-ACCACCTCTCGGGCTTTC-3' (antisense) corresponding to nucleotides 1579-1596 of the BM5d genome (Chat topadhyay SK, Sengupta D.N., FredricksonT.N., Morse H.C. III, Hartley J.W., "Characteristics and contributions of defective, ecotropic and mink cell focus-inducing viruses in a retrovirus induced immunodeficiency syndrome of mice.", J..Virol. 1991; 65: 4232-41.). A second pair or oligonucleotide primers was used for amplification of 203-bp of the mouse glucose-6-phosphate dehydrogenase (G6PD) gene. This amplification served as an internal control (endogenous standard) for evaluation of the relative BM5d proviral DNA. The nucleotide primers for the amplification were as follows: 5' primer, 5'-[…]-3' (sense) and 3' primer, 5'-[…]-3' (antisense) (Kurdi-Haidar B., Mason P.J., Berrebi A., et al., "Origin and spread of the glucose-6-phosphate dehydrogenase variant (G6PD-Mediterranean) in the Middle East.", Am. J. Hum. Genet. 1990; 47:1013-19.).
Probe D30, which was derived from the 137-bp Smal-Xhol p12 gag fragment of the defective virus genome (DU5H), was kindly provided by P. Jolicoeur (Montreal, Canada) (Aziz D.C., Hanna Z., Jolicoeur P., "Severe immunodeficiency disease induced by a defective murine leukemia virus.", Nature 1989; 338: 505-08).
Total cellular DNA was isolated from the spleens, lymph nodes and bone marrow of uninfected, infected and infected/treated mice by the sodium iodide isopropanol method.
PCR amplifications were performed in a 25 µl final volume using the Perkin Elmer GeneAMP kit (1 mM MgCl2, 2.5 U AmpliTag) with 0.3 µg total cellular DNA and 20 pmol of each primer.
PCR reaction were carried out for 37 cycles at 95°C for 30 sec, 58°C for 30 sec and 72°C for 30 sec with a final extension at 72°C for 10 min.
Products were analyzed by electrophoresis on agarose gel, blotted and hybridized with either the ^32P-labeled D30 or G6PD probe.
The intensity of radiolabeled bands was analyzed and quantified in a GS-250 Molecular Imager™ (Bio-Rad, Hercules, CA, USA). For BM5d proviral DNA detection the relative integration was determined by dividing the intensity of the BM5d bands by the intensity of G6PD bands (Fraternale A., Casabianca A., Rossi L., et al., "Inhibition of murine AIDS by combination of AZT and dideoxycytidine 5'-triphosphate.", J. Acquir. Imm. Def Syndr. and Hum. Retrovir. 1996; 12:164-73). The percentages of inhibition were referred to the infected mice.

[3] = test system: LP-BM5; experiment: Histopathological examination of liver and lymph node sections; conditions: in drinking water at 15 mg/mouse
Text: Samples of lymph nodes and liver from three animals in each treatment group were fixed in 4% paraformaldehyde in phosphate-buffered saline, sectioned, and stained with May Grunwald-Giemsa.

[4] = group a: 3.0 mg i.p. once a day for 5 consecutive days, 4 weeks
[5] = group b: 3.0 mg i.p. twice a day for 5 consecutive days, 4 weeks
[6] = group c: 10 mg in drinking water for 5 consecutive days, 4 weeks
[7] = group d: 15 mg in drinking water for 5 consecutive days, 4 weeks
[8] = treatment c: after 6 weeks of infection 3 mg F-ara-AMP i.p. twice a day, 5 consecutive days, 4 weeks, at 10 weeks after infection
[9] = treatment g: after 6 weeks of infection 3 mg F-ara-AMP i.p. twice a day 4 weeks, then interrupted, at 15 weeks after infection

## Nc1nc(F)nc2c1ncn2[C@@H]1O[C@H](COP(=O)(O)O)[C@@H](O)[C@@H]1O [F-ara-AMP, Fludarabine phosphate]
[1]
  number of circulating B cells after suspension of administration: returns to normal values
[2]; [4]
  % of inhibition of BM5d proviral DNA, Bonemarrow: 0%
  % of inhibition of BM5d proviral DNA, Lymphnode: 19.76±11.10 %
  % of inhibition of BM5d proviral DNA, Spleen: 25.74±17.54%
[2]; [5]
  % of inhibition of BM5d proviral DNA, Bonemarrow: 22.94±7.40 %
  % of inhibition of BM5d proviral DNA, Lymphnode: 54.63±13.12 %
  % of inhibition of BM5d proviral DNA, Spleen: 39.85±16.70 %
[2]; [6]
  % of inhibition of BM5d proviral DNA, Bonemarrow: 28.05±8.84 %
  % of inhibition of BM5d proviral DNA, Lymphnode: 30.33±19.67 %
  % of inhibition of BM5d proviral DNA, Spleen: 15.16±11.46%
[2]; [7]
  % of inhibition of BM5d proviral DNA, Bonemarrow: 21.69±9.02 %
  % of inhibition of BM5d proviral DNA, Lymphnode: 12.16±5.48%
  % of inhibition of BM5d proviral DNA, Spleen: 27.40±8.47 %
[2]; [8]
  bone marrow, BM5d proviral DNA copy number (E): 19,750±1,485 Proviral DNA molecules per 0.3 µg of total cellular DNA
  bone marrow, inhibition of BM5d (% vs. Infected) (F): 30.32±5.24 %
  lymph node, BM5d proviral DNA copy number (C): 49,500±7758 Proviral DNA molecules per 0.3 µg of total cellular DNA
  lymph node, inhibition of BM5d (% vs. Infected) (D): 77.46±3.53 %
  spleen, BM5d proviral DNA copy number (A): 37,900±15,717 Proviral DNA molecules per 0.3 µg of total cellular DNA
  spleen, inhibition of BM5d (% vs. Infected) (B): 74.27 ± 10.67 %
[2]; [9]
  bone marrow, BM5d proviral DNA copy number (E): 33,900±3,736 Proviral DNA molecules per 0.3 µg of total cellular DNA
  lymph node, BM5d proviral DNA copy number (C): 180,000±8,544 Proviral DNA molecules per 0.3 µg of total cellular DNA
  lymph node, inhibition of BM5d (% vs. Infected) (D): 34.00±3.13 %
  spleen, BM5d proviral DNA copy number (A): 135,000±47,444 Proviral DNA molecules per 0.3 µg of total cellular DNA
  spleen, inhibition of BM5d (% vs. Infected) (B): 31.47±24.08%
[3]
  toxicity in the liver (necrotic cells): some toxicity
